Measured values from patent US4576760A, “Hydroquinone sulfate derivatives and production thereof” (Takeda Chemical Industries, Ltd., priority 1983, dated 1986).

Experiments:
cAMP phosphodiesterase = assay: Action of inhibiting cAMP phosphodiesterase (method of Butcher and Sutherland; inorganic phosphoric acid produced from cyclic AMP); assay type: biochemical; settings: phosphodiesterase from beef heart and 5'-nucleotidase
Experimental: In accordance with the method of Butcher and Sutherland [J. Biol. Chem., 237, 1244 (1962)], the action of inhibiting cAMP phosphodiesterase was determined.
**Amounts of inorganic phosphoric acid produced by decomposition of cycli
AMP with phosphodiesterase from beef heart and 5nucleotidase.

peroxidation of lipids = assay: Inhibition rate of peroxidation of lipids (method of Kornbrust and Mavis; malondialdehyde formed in homogenized rat livers with NADPH/Fe++); assay type: biochemical; settings: homogenized livers of rats
Experimental: In accordance with the method of Kornbrust and Mavis [Mol. Pharm., 17, 400 (1980)], inhibition rate of peroxidation of lipids was determined.
Note*: Homogenized livers of rats were incubated in the presence of
NADPH/Fe^++. The amounts of malondialdehyde formed due to the
peroxidation of lipids were compared.

## COc1c(O)c(C)c(CCCCCCCCCCO)c(OS(=O)(=O)O)c1OC [6-(10-hydroxydecyl)-2,3-dimethoxy-5-methylhydroquinone 1-sulfate]
cAMP phosphodiesterase; 1 × 10^-3 M
  Inhibition rate of phosphodiesterase: 89%
cAMP phosphodiesterase; 5 × 10^-4 M
  Inhibition rate of phosphodiesterase: 70%
Peroxidation of lipids; 1 × 10^-4 M
  Inhibition Rate of Peroxidation of Lipids: 59%
Peroxidation of lipids; 1 × 10^-5 M
  Inhibition Rate of Peroxidation of Lipids: 28%
